# Measurements as given in ChEMBL document CHEMBL3991601, “The target landscape of clinical kinase drugs” (Science, 2017).
# The source made the active and inactive calls. Rule as the data show it, for most assays here: actives have a measured Kd and inactives only a lower limit.
# Columns and labels:
# [1] = target: Cyclin-dependent kinase 7 (Homo sapiens, UniProt P50613)
# [2] = target: T1, Glycine--tRNA ligase (Homo sapiens, UniProt P41250)
# T1 sequence (P41250 whole entry): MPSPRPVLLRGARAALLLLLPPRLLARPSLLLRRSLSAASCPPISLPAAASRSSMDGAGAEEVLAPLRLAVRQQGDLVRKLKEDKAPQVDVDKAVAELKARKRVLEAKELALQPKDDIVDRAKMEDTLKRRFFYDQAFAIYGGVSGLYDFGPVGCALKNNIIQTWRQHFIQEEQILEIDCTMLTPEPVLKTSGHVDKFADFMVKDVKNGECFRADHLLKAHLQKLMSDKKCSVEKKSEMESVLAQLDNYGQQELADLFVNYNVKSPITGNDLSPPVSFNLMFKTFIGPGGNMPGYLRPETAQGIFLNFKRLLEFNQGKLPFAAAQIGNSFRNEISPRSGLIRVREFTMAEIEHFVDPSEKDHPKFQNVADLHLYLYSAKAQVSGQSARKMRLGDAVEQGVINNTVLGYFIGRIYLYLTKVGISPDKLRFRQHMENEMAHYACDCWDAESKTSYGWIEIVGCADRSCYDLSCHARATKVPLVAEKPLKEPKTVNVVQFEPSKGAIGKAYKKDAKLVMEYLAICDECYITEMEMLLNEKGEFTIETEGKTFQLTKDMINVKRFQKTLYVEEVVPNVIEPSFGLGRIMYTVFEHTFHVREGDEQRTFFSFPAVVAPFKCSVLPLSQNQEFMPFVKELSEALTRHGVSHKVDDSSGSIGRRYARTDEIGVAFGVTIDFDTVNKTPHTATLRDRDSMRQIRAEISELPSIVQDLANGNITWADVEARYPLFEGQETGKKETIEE
# [3] = target: T2, Mitogen-activated protein kinase kinase kinase kinase 2 (Homo sapiens, UniProt Q12851)
# T2 sequence (Q12851 whole entry): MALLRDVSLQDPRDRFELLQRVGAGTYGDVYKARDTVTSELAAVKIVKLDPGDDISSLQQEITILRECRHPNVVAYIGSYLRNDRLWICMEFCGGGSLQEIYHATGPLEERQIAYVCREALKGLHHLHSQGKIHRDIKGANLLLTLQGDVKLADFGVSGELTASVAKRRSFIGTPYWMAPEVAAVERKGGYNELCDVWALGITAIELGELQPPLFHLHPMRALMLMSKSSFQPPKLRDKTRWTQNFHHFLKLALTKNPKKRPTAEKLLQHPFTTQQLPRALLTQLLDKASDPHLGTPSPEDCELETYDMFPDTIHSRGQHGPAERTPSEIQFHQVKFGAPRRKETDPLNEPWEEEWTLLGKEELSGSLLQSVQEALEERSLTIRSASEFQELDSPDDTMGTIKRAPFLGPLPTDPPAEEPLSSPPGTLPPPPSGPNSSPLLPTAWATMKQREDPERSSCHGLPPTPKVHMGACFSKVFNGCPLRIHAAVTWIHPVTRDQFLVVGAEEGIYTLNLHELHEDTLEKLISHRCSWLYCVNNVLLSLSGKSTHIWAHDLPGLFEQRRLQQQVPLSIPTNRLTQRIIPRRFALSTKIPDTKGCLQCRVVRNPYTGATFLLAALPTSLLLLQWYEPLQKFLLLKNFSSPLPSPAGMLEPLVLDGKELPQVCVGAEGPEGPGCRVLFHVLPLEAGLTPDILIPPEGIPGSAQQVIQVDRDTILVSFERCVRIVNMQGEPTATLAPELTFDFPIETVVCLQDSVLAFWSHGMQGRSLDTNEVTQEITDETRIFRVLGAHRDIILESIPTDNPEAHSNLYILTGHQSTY
# [4] = target: Mitogen-activated protein kinase kinase kinase kinase 5 (Homo sapiens, UniProt Q9Y4K4)
# Chain of Mitogen-activated protein kinase kinase kinase kinase 5 (Q9Y4K4 whole entry): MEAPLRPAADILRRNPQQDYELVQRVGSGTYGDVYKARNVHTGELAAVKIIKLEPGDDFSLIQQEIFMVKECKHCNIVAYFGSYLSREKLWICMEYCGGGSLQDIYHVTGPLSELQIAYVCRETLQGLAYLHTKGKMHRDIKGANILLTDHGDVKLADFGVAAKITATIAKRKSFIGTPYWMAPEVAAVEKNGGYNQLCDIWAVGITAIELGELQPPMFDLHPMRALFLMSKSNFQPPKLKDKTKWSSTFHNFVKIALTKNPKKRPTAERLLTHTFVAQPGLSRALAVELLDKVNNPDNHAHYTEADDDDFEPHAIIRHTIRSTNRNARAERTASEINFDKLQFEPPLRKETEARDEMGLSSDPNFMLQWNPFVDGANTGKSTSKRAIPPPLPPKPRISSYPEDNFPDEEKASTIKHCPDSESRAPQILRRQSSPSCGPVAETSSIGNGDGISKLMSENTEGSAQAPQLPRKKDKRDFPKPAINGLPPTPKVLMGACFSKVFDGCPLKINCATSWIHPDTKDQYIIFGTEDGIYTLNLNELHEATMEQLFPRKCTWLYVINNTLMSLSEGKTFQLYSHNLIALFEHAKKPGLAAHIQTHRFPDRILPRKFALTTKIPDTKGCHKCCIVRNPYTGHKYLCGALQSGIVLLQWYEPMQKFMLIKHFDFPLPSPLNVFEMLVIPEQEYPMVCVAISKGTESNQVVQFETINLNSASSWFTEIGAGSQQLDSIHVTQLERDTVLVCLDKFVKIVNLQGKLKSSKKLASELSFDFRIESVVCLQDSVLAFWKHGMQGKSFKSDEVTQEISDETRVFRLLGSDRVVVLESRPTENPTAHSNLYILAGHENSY
# [5] = target: T3, Serine/threonine-protein kinase PLK4 (Homo sapiens, UniProt O00444)
# T3 sequence (O00444 whole entry): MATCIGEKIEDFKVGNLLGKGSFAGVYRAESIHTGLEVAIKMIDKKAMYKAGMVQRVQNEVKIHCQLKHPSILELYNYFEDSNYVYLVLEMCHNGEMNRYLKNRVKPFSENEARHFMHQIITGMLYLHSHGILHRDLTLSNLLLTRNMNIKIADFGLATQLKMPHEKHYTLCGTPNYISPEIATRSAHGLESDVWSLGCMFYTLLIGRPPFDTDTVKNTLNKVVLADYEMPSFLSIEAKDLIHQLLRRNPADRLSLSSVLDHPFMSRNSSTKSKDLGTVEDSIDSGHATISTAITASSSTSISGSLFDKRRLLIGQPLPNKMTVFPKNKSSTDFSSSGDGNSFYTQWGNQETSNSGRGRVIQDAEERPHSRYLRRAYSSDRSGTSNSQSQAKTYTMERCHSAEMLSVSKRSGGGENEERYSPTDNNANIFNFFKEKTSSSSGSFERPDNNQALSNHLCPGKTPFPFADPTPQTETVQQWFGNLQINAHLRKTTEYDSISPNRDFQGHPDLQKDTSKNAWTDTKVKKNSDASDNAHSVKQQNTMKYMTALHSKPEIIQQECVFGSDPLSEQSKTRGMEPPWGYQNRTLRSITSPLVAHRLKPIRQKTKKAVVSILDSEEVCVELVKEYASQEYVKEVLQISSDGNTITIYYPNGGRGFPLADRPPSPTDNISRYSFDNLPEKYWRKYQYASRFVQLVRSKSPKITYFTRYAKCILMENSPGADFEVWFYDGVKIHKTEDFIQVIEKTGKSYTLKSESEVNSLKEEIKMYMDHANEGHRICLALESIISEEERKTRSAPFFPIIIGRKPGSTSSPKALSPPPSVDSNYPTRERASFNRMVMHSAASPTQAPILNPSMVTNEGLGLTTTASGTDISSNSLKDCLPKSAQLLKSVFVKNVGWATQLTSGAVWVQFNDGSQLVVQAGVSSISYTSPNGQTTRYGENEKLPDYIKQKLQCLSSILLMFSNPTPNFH
# [6] = target: cAMP-dependent protein kinase catalytic subunit gamma (Homo sapiens, UniProt P22612)
# Chain of cAMP-dependent protein kinase catalytic subunit gamma (P22612 whole entry): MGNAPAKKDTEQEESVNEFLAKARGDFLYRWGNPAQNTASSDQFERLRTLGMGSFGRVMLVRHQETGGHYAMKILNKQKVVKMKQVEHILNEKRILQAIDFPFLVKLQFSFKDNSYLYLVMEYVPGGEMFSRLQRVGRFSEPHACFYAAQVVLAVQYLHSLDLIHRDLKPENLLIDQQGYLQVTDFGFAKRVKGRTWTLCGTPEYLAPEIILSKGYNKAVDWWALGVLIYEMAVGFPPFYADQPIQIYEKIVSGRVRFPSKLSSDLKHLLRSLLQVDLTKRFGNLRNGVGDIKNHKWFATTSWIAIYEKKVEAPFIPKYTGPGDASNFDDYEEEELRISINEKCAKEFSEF
# Also: in the data inactive means no Kd found up to 30 µM.
# Chain of Cyclin-dependent kinase 7 (P50613 whole entry): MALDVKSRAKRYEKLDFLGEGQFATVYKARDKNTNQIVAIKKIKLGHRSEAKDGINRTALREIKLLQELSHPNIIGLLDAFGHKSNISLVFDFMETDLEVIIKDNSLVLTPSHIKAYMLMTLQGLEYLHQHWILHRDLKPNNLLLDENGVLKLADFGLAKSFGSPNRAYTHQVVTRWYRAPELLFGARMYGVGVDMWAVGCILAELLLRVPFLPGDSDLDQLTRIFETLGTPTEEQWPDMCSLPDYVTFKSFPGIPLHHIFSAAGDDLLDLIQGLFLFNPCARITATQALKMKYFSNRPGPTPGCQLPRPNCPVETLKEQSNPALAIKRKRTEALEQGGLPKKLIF
Kd [1],Kd [2],Kd [3],Kd [4],Kd [5],Kd [6],SMILES
> 30 µM (inactive),> 30 µM (inactive),> 30 µM (inactive),> 30 µM (inactive),> 30 µM (inactive),–,O=c1[nH]c([C@@H]2CCCN2)nc2c1oc1ccc(Cl)cc12
–,> 30 µM (inactive),> 30 µM (inactive),> 30 µM (inactive),> 30 µM (inactive),> 30 µM (inactive),CCN1CCN(Cc2ccc(Nc3ncc(F)c(-c4cc(F)c5nc(C)n(C(C)C)c5c4)n3)nc2)CC1 [ABEMACICLIB]
–,> 30 µM (inactive),–,–,–,> 30 µM (inactive),CN(C)C/C=C/C(=O)Nc1cc2c(Nc3ccc(F)c(Cl)c3)ncnc2cc1O[C@H]1CCOC1 [AFATINIB]
> 30 µM (inactive),> 30 µM (inactive),> 30 µM (inactive),> 30 µM (inactive),> 30 µM (inactive),–,S=C(NCc1ccc2c(c1)OCO2)N1CCN(c2ncnc3c2oc2ccccc23)CC1 [AMUVATINIB]
–,> 30 µM (inactive),–,2.24 µM (active),> 30 µM (inactive),> 30 µM (inactive),CCN(CCCOc1ccc2c(Nc3cc(CC(=O)Nc4cccc(F)c4)n[nH]3)ncnc2c1)CCOP(=O)(O)O [BARASERTIB]
> 30 µM (inactive),> 30 µM (inactive),> 30 µM (inactive),–,> 30 µM (inactive),> 30 µM (inactive),COc1cccc(Nc2ncnn3ccc(CN4CC[C@@H](N)[C@H](O)C4)c23)c1 [BMS-690514]
–,> 30 µM (inactive),–,–,–,> 30 µM (inactive),C[C@@]1(C(=O)Nc2ccc(F)nc2)CCCN1c1nc(Nc2cc(C3CC3)n[nH]2)c2cccn2n1 [BMS-754807]
–,> 30 µM (inactive),–,–,–,–,COc1cc2c(Oc3ccc4[nH]c(C)cc4c3F)ncnc2cc1OCCCN1CCCC1 [CEDIRANIB]
> 30 µM (inactive),> 30 µM (inactive),> 30 µM (inactive),> 30 µM (inactive),> 30 µM (inactive),–,COc1cc2ncnc(Nc3ccc(F)c(Cl)c3)c2cc1NC(=O)/C=C/CN1CCCCC1 [DACOMITINIB ANHYDROUS]
–,> 30 µM (inactive),–,–,> 30 µM (inactive),> 30 µM (inactive),Cn1c(=O)n(-c2ccc(C(C)(C)C#N)cc2)c2c3cc(-c4cnc5ccccc5c4)ccc3ncc21 [DACTOLISIB]
> 30 µM (inactive),> 30 µM (inactive),> 30 µM (inactive),> 30 µM (inactive),–,> 30 µM (inactive),CC[C@@](C)(Nc1ccnc(-c2c[nH]c3ncccc23)n1)C(=O)NCC(F)(F)F [DECERNOTINIB]
> 30 µM (inactive),> 30 µM (inactive),> 30 µM (inactive),> 30 µM (inactive),> 30 µM (inactive),–,C#Cc1cccc(Nc2ncnc3cc4c(cc23)OCCOCCOCCO4)c1 [ICOTINIB]
> 30 µM (inactive),> 30 µM (inactive),> 30 µM (inactive),> 30 µM (inactive),1.61 µM (active),–,Cc1ccc(C(=O)Nc2ccc(Oc3cc4cnn(C)c4cc3-c3cn[nH]c3)c(F)c2)c(=O)n1-c1ccc(F)cc1 [MERESTINIB]
–,> 30 µM (inactive),–,–,–,–,CC1(C)CNc2cc(NC(=O)c3cccnc3NCc3ccncc3)ccc21 [MOTESANIB]
> 30 µM (inactive),> 30 µM (inactive),> 30 µM (inactive),> 30 µM (inactive),> 30 µM (inactive),–,O=C(Nc1ccc(OC(F)(F)F)cc1)c1sccc1NCc1ccnc2ccccc12 [OSI-930]
–,> 30 µM (inactive),–,–,–,–,Cn1cnc2c(F)c(Nc3ccc(Br)cc3Cl)c(C(=O)NOCCO)cc21 [SELUMETINIB]
> 30 µM (inactive),> 30 µM (inactive),> 30 µM (inactive),> 30 µM (inactive),> 30 µM (inactive),–,Cn1c(=O)c(F)c(Nc2ccc(I)cc2F)c2c(=O)n(C[C@@H](O)CO)cnc21 [TAK-733]
–,> 30 µM (inactive),–,–,–,> 30 µM (inactive),COc1cc2c(N3CCN(C(=O)Nc4ccc(OC(C)C)cc4)CC3)ncnc2cc1OCCCN1CCCCC1 [TANDUTINIB]
> 30 µM (inactive),> 30 µM (inactive),> 30 µM (inactive),> 30 µM (inactive),> 30 µM (inactive),–,CNC(=O)c1cccc(-c2ccc3c(N4CCOC[C@@H]4C)nc(N4CCOC[C@@H]4C)nc3n2)c1 [VISTUSERTIB]

SMILES,Kd [1],Kd [2],Kd [3],Kd [4],Kd [5],Kd [6]
Cn1cc(-c2[nH]c3cc(NC(=O)[C@H](N)C4CCCCC4)cc4c3c2C=NNC4=O)cn1,> 30 µM (inactive),> 30 µM (inactive),> 30 µM (inactive),2.64 µM (active),–,> 30 µM (inactive)
C=CCn1c(=O)c2cnc(Nc3ccc(N4CCN(C)CC4)cc3)nc2n1-c1cccc(C(C)(C)O)n1 [ADAVOSERTIB],–,> 30 µM (inactive),–,–,> 30 µM (inactive),> 30 µM (inactive)
NC[C@@](O)(c1ccc(Cl)cc1)c1ccc(-c2cn[nH]c2)cc1 [AT-13148],> 30 µM (inactive),> 30 µM (inactive),> 30 µM (inactive),> 30 µM (inactive),> 30 µM (inactive),–
CC1(COc2ccc3c(c2)ncn3-c2ccc3cccc(N4CCC(N)CC4)c3n2)COC1 [CRENOLANIB],–,–,> 30 µM (inactive),0.455 µM (active),> 30 µM (inactive),> 30 µM (inactive)
CNC(=O)c1ccc(Nc2ncc(C(F)(F)F)c(NCc3nccnc3N(C)S(C)(=O)=O)n2)cc1 [DEFACTINIB],–,> 30 µM (inactive),> 30 µM (inactive),> 30 µM (inactive),> 30 µM (inactive),> 30 µM (inactive)
O=S(=O)(c1cccc2cnccc12)N1CCCNCC1 [FASUDIL],–,> 30 µM (inactive),–,–,–,–
N#CCNC(=O)c1ccc(-c2ccnc(Nc3ccc(N4CCOCC4)cc3)n2)cc1 [MOMELOTINIB],> 30 µM (inactive),> 30 µM (inactive),> 30 µM (inactive),–,–,–
CN(c1ncccc1CNc1nc(Nc2ccc3c(c2)CC(=O)N3)ncc1C(F)(F)F)S(C)(=O)=O [PF-00562271],–,> 30 µM (inactive),–,–,–,> 30 µM (inactive)
CN1CCN(c2nc(C3=C(c4c[nH]c5ccccc45)C(=O)NC3=O)c3ccccc3n2)CC1 [SOTRASTAURIN],> 30 µM (inactive),> 30 µM (inactive),> 30 µM (inactive),–,> 30 µM (inactive),> 30 µM (inactive)
